# Like-named read-outs stand apart in the source and are kept apart here.
# Columns and labels:
# A549 cells [1] = test: Scratch-wound healing assay; format: cell-based, human; details: A549, 60 mg/L
# Method: (§1) The cells scratch‐wound assay was performed as previous reported.[38] The cells were seeded in a 6‐well plate and then cultured in DMEM medium containing indicated concentration of C1632 or 0.01% DMSO for 5 days. A denuded area was created across the diameter of dish by a yellow tip as the cell density up to 95%. Then cells were maintained in a serum‐free medium throughout the test. Phase‐contrast images were taken at the indicate time by Nikon Ti microscope and analysed with Axiovision Rel.4.8 software.
# A549R cells [2] = test: Scratch-wound healing assay; format: cell-based, human; details: 60 mg/L, after 72 h, control 97%
# Method: as §1
# [3] = test system: focal adhesion kinase (FAK); test: Immunofluorescence assay of FAK; format: cell-based, human; details: A549R cells, 5 days, concentration-dependent
# Method: Performing the immunofluorescence (IF) assay as previously described.[39] Briefly, cells were seeded to slide, fixed with 4% paraformaldehyde, and permeabilized using 0.5% Triton X‐100. Next, cells were incubated with primary antibodies against FAK (CST), followed by incubating with secondary antibodies (DyLight 488‐conjugated anti‐mouse). DAPI was used to stain the nuclear. The fluorescence image was captured by using Nikon Ti microscope and the quantitative analysis was carried out by ImageJ.
# A549 cells [4] = test: MTT cell viability assay; format: cell-based, human; details: A549, high dose 60 mg/L
# Method: (§2) The cell viability of MRC5, A549, and A549R were assessed by the 3‐(4,5‐dimethylthiazol‐2‐yl)‐2,5‐diphenyltetrazolium bromide (MTT) assay.[39] Cells were treated with indicated concentration of C1632 or 0.01% DMSO (Control) for 48 h before 20 μl/well MTT (0.5 mg/ml) was added for another 4 h. The reaction product formazan was dissolved in 100 μl DMSO and the absorbance at 560 nm was determined by the spectrophotometer (DTX880, Beckman Coulter).
# A549R cells [5] = test: MTT cell viability assay; format: cell-based, human; details: high dose 60 mg/L
# Method: as §2
# MRC5 cells = test: MTT cell viability assay; format: cell-based, human; details: MRC5, high dose 60 mg/L
# Method: as §2
# [6] = Pharmacokinetic study, plasma by UHPLC-MS/MS; format: in vivo, Sprague-Dawley (SD) rats; details: for MRT last: read-out: MRT(0-t); for half-life: read-out: t1/2z (converted)
# Method: Agilent 1290 UHPLC system and 6420 series Triple‐Quadrupole Tandem Mass Spectrometer (Agilent Corporation) maintained at 35°C with a ZORBAX Eclipse Plus C18 column (1.8 μm, 2.1 × 50 mm). The mobile phase was a gradient elution program consisting of solvent A with solvent B at a flow rate of 0.4 ml/min. Mobile phase A was 0.1% formic acid in water (v/v), and mobile phase B was acetonitrile. The optimal gradient elution program was as follows: 0–0.5 min, linear from 80% to 5% A; 0.5–1.5 min, 5% A; 1.5–1.6 min, linear from 5% to 80% A. The post‐time was 1.3 min for equilibration of the column and the total runtime was 1.8 min. The mass spectrometer was acquired in an ESI‐positive mode with multiple reaction monitoring (MRM). Instrument control and data acquisition were performed on the MassHunter Agilent Software (version B.07.00).
# The desolation gas (nitrogen) flow was set to 10 L/h: the capillary voltage: 4000 V; nebulizing gas and drying gas (both nitrogen): 45 psi and 350°C, respectively. The MRM mode with m/z 282.2→76.9 for C1632 and m/z 282.1→194.0 for IS was used for quantitative analysis.
# Male SD rats were starved for 12 h before the experiment. But, tap water was available ad libitum. C1632 was administered orally or intravenously at the dose of 20 mg/kg (p.o.), 4 mg/kg (i.v.), respectively (n = 6). Blood samples were collected into heparinized polythene tubes 0.083, 0.25, 0.5, 1, 2, 4, 6, 9, 12, 24 h after dosing. As followed, the samples were centrifuged at 14,954 g for 10 min. Add acetonitrile (400 µl) and IS (20 µl) into collected plasma samples (100 µl). Thereafter, the samples were vortexed for 2 min, followed by centrifugation at 14,954 g for 10 min. Remove the supernatants to 1.5 ml tube and the sample is ready for detection by established UHPLC‐MS/MS assay. The injection volume is 6 µl. The pharmacokinetic parameters were determined using DAS software (Version 3.0).
# A549 cells [7] = test: Transwell migration and invasion assay; format: cell-based, human; details: A549, pretreated 5 days, 24 h
# Method: (§3) Transwell assay was carried out according to the manufacturer's instructions provided by Transwell Kit (Corning Costar). Briefly, cells were pretreated with indicated concentrations of C1632 for 5 days, then harvested and re‐seeded into insert (transwell permeable support) containing 100 μl serum‐free DMEM medium. The insert was placed into 24‐well plate containing 600 μl of DMEM medium extra added with 10% FBS. 24 h later, cells on the upper surface of the insert were removed with cotton‐tipped swabs. And cells on backside surface of the insert were fixed with 10% formalin, then stained with crystal violet. The insert was washed three times with ddH2O before it is subjected to Nikon Ti microscope observation. Additionally, these inserts were dissolved in 500 μl acetic acid (33%) separately, and the absorbance at 560 nm was detected by the spectrophotometer (DTX880, Beckman Coulter).
# A549R cells [8] = test: Transwell migration and invasion assay; format: cell-based, human; details: pretreated 5 days, 24 h
# Method: as §3
# [9] = male, Sprague-Dawley, iv, rat plasma, i.v. 4 mg/kg
# [10] = male, Sprague-Dawley, po, rat plasma, p.o. 20 mg/kg
smiles,measurement,setting,value
CC(=O)N(C)c1cccc(-c2ccc3nnc(C)n3n2)c1 [C1632],migration rate,A549 cells [1],significant decrease
same,scratch covered by migrated cells,A549R cells [2],60%
same,distribution and foci formation of FAK,[3],reduced
same,cell viability,A549 cells [4],decreased the viability
same,cell viability,A549R cells [5],decreased the viability
same,cytotoxicity on normal foetal lung fibroblast cells,MRC5 cells,almost had no cytotoxicity
same,AUC(0-t),[6]; [9],4090 ± 1630 ng·h/mL
same,Cmax,[6]; [9],2070 ± 338 ng/mL
same,Tmax,[6]; [9],0.53 ± 0.74 h
same,MRT last,[6]; [9],1.57 ± 0.74 h
same,half-life,[6]; [9],1.14 ± 0.52 h
same,AUC(0-t),[6]; [10],9100 ± 3830 ng·h/mL
same,Cmax,[6]; [10],4240 ± 2680 ng/mL
same,Tmax,[6]; [10],1.04 ± 0.78 h
same,CL/F,"[6]; male, Sprague-Dawley, po, rat plasma, p.o. 20 mg/kg, read-out: CLz/F (converted)",46.2 mL/min/kg
same,MRT last,[6]; [10],1.88 ± 0.42 h
same,Vd/F,"[6]; male, Sprague-Dawley, po, rat plasma, p.o. 20 mg/kg, read-out: Vz/F",4.54 ± 4.68 L/kg
same,half-life,[6]; [10],1.05 ± 0.6 h
same,bioavailability,"[6]; male, Sprague-Dawley, rat, plasma, oral, 20 mg/kg, rats, p.o. 20 mg/kg vs i.v. 4 mg/kg, read-out: F (bioavailability)",44.5%
same,time of second peak of the plasma concentration-time curve,"[6]; oral administration group, 20 mg/kg",1 h
same,CLz/F,"[6]; rat plasma, i.v. 4 mg/kg",18.8 ± 8.5 mL/min/kg
same,Vz/F,"[6]; rat plasma, i.v. 4 mg/kg",2.05 ± 1.66 L/kg
same,Transwell migration compared with untreated cells,A549 cells [7],decreased migration
same,Transwell migration compared with untreated cells,A549R cells [8],decreased migration
